Reference: article PMC1950228, “Organosilicon-Containing Thiazole Derivatives as Potential Lipoxygenase Inhibitors and Anti-Inflammatory Agents” (Bioinorganic Chemistry and Applications, 2007)
Converted amounts (≈) assume the structure as drawn. “And” between values parts separate entries of the source, which are not always exact repeats. Identical values can stand only once. “Also recorded” adds a separate entry of the source. Like-named read-outs stand apart in the source and are kept apart here. Marks after values point to notes of the source that are not given here.

Key:
[1] = test system: HT-1080 (human fibrosarcoma); assay: In vitro cytotoxicity, HT-1080; type: cell-based; conditions: for stimulation of HT-1080 cell growing: CV, at all studied concentrations; for CC50: Homo sapiens; for LC50 HT-1080: human fibrosarcoma, coloration not stated
Protocol: (§1) Monolayer tumour cell lines MG-22A (mouse hepatoma), HT-1080 (human fibrosarcoma), and normal mouse fibroblasts (NIH 3T3) were cultivated for 72 hours in DMEM standard medium (Sigma) without an indicator and antibiotics. After the ampoule had thawed, cells from one to four passages were used in three concentrations of test compound: 1, 10 and 100 μg mL^−1. The control cells and cells with tested compounds in the range of 2–5* 10^4 cell mL^−1 concentration (depending on line nature) were placed on separate 96 wells plates. Solutions containing test compounds were diluted and added in wells to give the final concentrations. Control cells were treated in the same manner only in the absence of test compounds. Plates were cultivated for 72 hours. The number of survived cells was determined using crystal violet (CV), 3-(4,5-dimethylthiazol-2-yl)-2,5-diphenyltetrazolinium bromide (MTT), or neutral red (NR) coloration which was assayed by multiscan spectrophotometer. The quantity of alive cells on control plate was taken in calculations for 100% [22, 23]. The LC50 was calculated using Graph Pad Prism 3.0 program, r < .05. Concentration of NO was determined according to [23].

[2] = test system: MG-22A (mouse hepatoma); assay: In vitro cytotoxicity, MG-22A; type: cell-based; conditions: for CC50: Mus musculus, MG-22A; for LC50 MG-22A: mouse hepatoma, coloration not stated
Protocol: as §1

[3] = In vitro cytotoxicity, NIH 3T3 (neutral red) and LD50; type: cell-based; conditions: for CC50 at 72 h: 50% cell killing, neutral red coloration, normal mouse fibroblasts, read-out: LC50 NIH 3T3 NR; for LD50: mouse, NIH 3T3, method not described
Protocol: The control cells and cells with tested compounds in the range of 2–5* 10^4 cell mL^−1 concentration (depending on line nature) were placed on separate 96 wells plates. […] Control cells were treated in the same manner only in the absence of test compounds. Plates were cultivated for 72 hours. The number of survived cells was determined using crystal violet (CV), 3-(4,5-dimethylthiazol-2-yl)-2,5-diphenyltetrazolinium bromide (MTT), or neutral red (NR) coloration which was assayed by multiscan spectrophotometer. The quantity of alive cells on control plate was taken in calculations for 100% [22, 23]. The LC50 was calculated using Graph Pad Prism 3.0 program, r < .05. Concentration of NO was determined according to [23].

[4] = test system: HT-1080 (human fibrosarcoma); assay: Intracellular NO generation, HT-1080; type: cell-based; conditions: CV coloration
Protocol: as §1

[5] = test system: MG-22A (mouse hepatoma); assay: Intracellular NO generation, MG-22A; type: cell-based; conditions: CV coloration
Protocol: as §1

[6] = test system: HT-1080 (human fibrosarcoma); conditions: cited from earlier work
[7] = test system: carrageenin mice paw edema (CPE); assay: Carrageenin-induced mice paw edema inhibition; type: in vivo, AKR or A mice
Protocol: AKR or A mice (20–30 g, groups of ten) of both sexes were used. Females pregnant were excluded. A single dose of 0.2 mmol/kg body weight of compounds 12, 16, 20, 21 and 0.01 mmol/kg of compound 22 or 0.013 mmol/kg of compound 14 suspended in water with few drops of Tween 80 was administered intraperitoneally simultaneously to the intradermally injection of 0.05 mL carrageenin in the right hind paw. Indomethacin was used as a standard diluted agent.
Organosilicon-containing compounds 12, 14, 16, 20–22 were examined in vivo for their anti-inflammatory activity using the carrageenin mice paw edema (CPE) as a model of inflammation. The in vivo anti-inflammatory effects of the tested thiazole derivatives were assessed by using the functional model of carrageenin-induced […] paw edema and are presented in Table 1 as percentage of weight increase at the right hind paw in comparison to the uninjected left hind paw.

[8] = target: T1, soybean lipoxygenase (LOX) (Glycine max, UniProt P08170); assay: Soybean lipoxygenase inhibition (UV absorbance at 234 nm); type: biochemical; conditions: for % inhibition LOX: at 0.1 mmol
T1 sequence (P08170 1-839): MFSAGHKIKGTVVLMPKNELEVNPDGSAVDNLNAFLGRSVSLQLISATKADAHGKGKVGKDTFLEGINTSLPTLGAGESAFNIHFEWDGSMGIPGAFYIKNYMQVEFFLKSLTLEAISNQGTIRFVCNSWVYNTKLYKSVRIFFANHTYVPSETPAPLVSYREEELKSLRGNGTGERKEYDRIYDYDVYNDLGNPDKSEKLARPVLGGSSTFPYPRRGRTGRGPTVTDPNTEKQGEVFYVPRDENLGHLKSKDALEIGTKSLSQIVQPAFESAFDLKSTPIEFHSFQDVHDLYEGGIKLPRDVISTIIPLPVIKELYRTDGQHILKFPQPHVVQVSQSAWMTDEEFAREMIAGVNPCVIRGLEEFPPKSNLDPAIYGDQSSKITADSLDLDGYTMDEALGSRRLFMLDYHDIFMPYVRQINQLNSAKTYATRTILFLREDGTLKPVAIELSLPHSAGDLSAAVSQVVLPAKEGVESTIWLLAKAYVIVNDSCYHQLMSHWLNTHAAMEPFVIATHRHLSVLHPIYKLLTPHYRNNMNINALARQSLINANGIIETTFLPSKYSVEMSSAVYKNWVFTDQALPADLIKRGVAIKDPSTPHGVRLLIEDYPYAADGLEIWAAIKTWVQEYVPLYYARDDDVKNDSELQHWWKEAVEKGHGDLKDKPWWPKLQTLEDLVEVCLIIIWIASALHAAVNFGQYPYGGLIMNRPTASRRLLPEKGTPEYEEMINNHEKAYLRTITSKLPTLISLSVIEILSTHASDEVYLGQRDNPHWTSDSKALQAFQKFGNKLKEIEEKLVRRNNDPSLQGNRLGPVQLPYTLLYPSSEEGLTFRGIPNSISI
Protocol: The tested compounds dissolved in DMSO or ethanol (concentrations ranged from 0.1 to 1 mM) were incubated at room temperature with sodium linoleate (0.1 mmol) and 0.2 mL of enzyme solution (250 U/mL in saline).
While one may not extrapolate the quantitative results of this assay to the inhibition of mammalian 5-LOX, it has been shown that inhibition of plant lipoxygenase activity by NSAIDs is qualitatively similar to their inhibition of the rat mast cell lipoxygenase and may be used as a simple qualitative screen for such activity. […] The IC50 values for compounds 14, 16, 17, 19, and 22 were determined.

[9] = HT-1080, 50% cell killing, MTT coloration, 72 hours, read-out: LC50 HT-1080 MTT
[10] = HT-1080, 50% cell killing, crystal violet coloration, 72 hours, read-out: LC50 HT-1080 CV
[11] = 50% cell killing, MTT coloration, 72 hours, read-out: LC50 MG-22A MTT
[12] = 50% cell killing, crystal violet coloration, 72 hours, read-out: LC50 MG-22A CV
[13] = NIH 3T3 normal mouse fibroblasts
[14] = dose 0.2 mmol/kgbw, intraperitoneally
[15] = soybean lipoxygenase, sodium linoleate 0.1 mmol, read-out: IC50 LOX
[16] = HT-1080, 72 h, read-out: LC50 HT-1080 MTT
[17] = 72 h, read-out: LC50 MG-22A MTT

## O=C(CN1CCC(O)CC1)Nc1nccs1 [Compound 6, 2-(4-hydroxypiperidin-1-yl)-N-(thiazol-2-yl)-acetnamide]
[1]
  stimulation of HT-1080 cell growing: up to 55%
  LC50 HT-1080: do not exhibit cytotoxic properties
[1]; [9]
  CC50: > 100 µg/mL
[1]; [10]
  CC50: > 100 µg/mL
[2]; MTT coloration
  decrease of MG-22A cell growing: up to 40%
[2]; [11]
  CC50: > 100 µg/mL
[2]; [12]
  CC50: > 100 µg/mL
[2]
  LC50 MG-22A: do not exhibit cytotoxic properties
[3]; [13]
  CC50 at 72 h: > 100 µg/mL
[3]
  LD50: > 2000 mg/kg
[4]
  NO HT-1080 CV: 4
[5]
  NO MG-22A CV: 6

## COc1ccc(-c2csc(NC(=O)CN3CCC(O)CC3)n2)cc1 [Compound 8, 2-(4-hy-droxypiperidin-1-yl)-N-[4-(p-methoxyphenyl)-thiazol-2-yl]-acetamide]
[1]; [9]
  CC50: 100 µg/mL (≈ 288 µM)
[1]; [10]
  CC50: > 100 µg/mL
[2]; [11]
  CC50: 16 µg/mL
[2]; [12]
  CC50: 17 µg/mL
[3]; [13]
  CC50 at 72 h: > 100 µg/mL
[3]
  LD50: 1110 mg/kg
[4]
  NO HT-1080 CV: 8
[5]
  NO MG-22A CV: 75

## O=C(CCN1CCC(O)CC1)Nc1nccs1 [Compound 10, 3-(4-hydroxypiperidin-1-yl)-N-(thiazol-2-yl)-propionamide]
[6]; HT-1080, coloration not stated, previously published data ref 17
  LC50 human fibrosarcoma: 48 µg/mL (≈ 188 µM)

## Cc1ncsc1CCO[Si](C)(C)C [Compound 12, 4-methyl-5-(β-trimethylsiloxyethyl)-thiazole]
[7]; [14]
  % carrageenin mice paw edema inhibition (CPE%): 24 ^** %
[8]; soybean lipoxygenase
  % inhibition LOX: 9.1%

## C[Si](C)(C)OCc1csc(N)n1 [Compound 14, 2-amino-4-trimethylsiloxymethyl-thiazole]
[7]; dose 0.013 mmol/kg, intraperitoneally
  % carrageenin mice paw edema inhibition (CPE%): 35.5 ^* %
[8]; [15]
  IC50: 100 µM

## C[Si](C)(C)OCc1csc(-c2ccccc2)n1 [Compound 16, 2-phenyl-4-trimethylsilox-ymethyl-thiazole]
[7]; [14]
  % carrageenin mice paw edema inhibition (CPE%): 47.6 ^* %
[8]; [15]
  IC50: 470 µM

## C[Si](C)(C)OC1CCN(CC(=O)Nc2nccs2)CC1 [Compound 17, 2-(4-trimethylsiloxypiperidin-1-yl)-N-(thiazol-2-yl)-acetamide]
[8]
  IC50: 350 µM
[1]
  stimulation of HT-1080 cell growing: up to 55%
  LC50 HT-1080: do not exhibit cytotoxic properties; also recorded: inactive
[1]; [16]
  CC50: > 100 µg/mL
[2]; MTT coloration
  decrease of MG-22A cell growing: up to 40%
[2]; [17]
  CC50: > 100 µg/mL
[2]
  LC50 MG-22A: do not exhibit cytotoxic properties; also recorded: inactive
[3]
  CC50 at 72 h: > 100 µg/mL
  LD50: 2130 mg/kg
[4]
  NO HT-1080 CV: 11
[5]
  NO MG-22A CV: 23

## C[Si](C)(C)OC1CCN(CC(=O)Nc2nc(-c3ccccc3)cs2)CC1 [Compound 18, 2-(4-trimethylsiloxypiperidin-1-yl)-N-(4-phenylthiazol-2-yl)-acetamide]
[8]; soybean lipoxygenase
  % inhibition LOX: 66.7%

## COc1ccc(-c2csc(NC(=O)CN3CCC(O[Si](C)(C)C)CC3)n2)cc1 [Compound 19, 2-(4-trimethylsilyloxypiperidin-1-yl)-N-[4-(p-methoxyphenyl)-thiazol-2-yl]-acetamide]
[8]
  IC50: 10 µM
[1]; [16]
  CC50: 100 µg/mL (≈ 238 µM)
[1]; HT-1080, read-out: LC50 HT-1080
  CC50: > 100 µg/mL
[2]; 72 h, read-out: LC50 MG-22A CV
  CC50: 21 µg/mL
[2]; [17]
  CC50: 13 µg/mL
[2]; read-out: LC50 MG-22A
  CC50: 30 µM
[3]
  CC50 at 72 h: 72 µg/mL (≈ 172 µM)
  LD50: 839 mg/kg
[4]
  NO HT-1080 CV: 27
[5]
  NO MG-22A CV: 122

## CCCCCCCCCCCCCCc1sc(NC(=O)CN2CCC(O[Si](C)(C)C)CC2)nc1-c1ccccc1 [Compound 20, 2-(4-trimethylsiloxypiperidin-1-yl)-N-(4-phenyl-5-tetradecylthi-azol-2-yl)-acetamide]
[7]; [14]
  % carrageenin mice paw edema inhibition (CPE%): 38.3 ^* %
[8]; difference of % inhibition at 0.1 mmol
  lower lipoxygenase inhibiting properties in comparison with compound 18: 26%
[8]; soybean lipoxygenase
  % inhibition LOX: 40.8%

## C[Si](C)(C)OC1CCN(CCC(=O)Nc2nccs2)CC1 [Compound 21, 3-(4-trimethylsiloxypiperidin-1-yl)-N-(thiazol-2-yl)-propionamide]
[7]; [14]
  % carrageenin mice paw edema inhibition (CPE%): 57.2% and 57.2 ^* %
[6]
  LC50 human fibrosarcoma: 44 µg/mL (≈ 134 µM)

## C[Si](C)(C)CCC[n+]1ccsc1N.[I-] [Compound 22, 2-amino-3-(γ-trimethylsilylpropyl)thiazolium iodide]
[7]; dose 0.01 mmol/kg, intraperitoneally
  % carrageenin mice paw edema inhibition (CPE%): 55.0% and 55.0 ^* %
[8]; [15]
  IC50: 460 µM

## COc1ccc2c(c1)c(CC(=O)O)c(C)n2C(=O)c1ccc(Cl)cc1 [Indomethacin, reference compound]
[7]; standard, dose 0.1 mmol/kgbw
  % carrageenin mice paw edema inhibition (CPE%): 57.4%
